Measured values from article PMC4979471 (Cell Death Discovery, 2015).
Like-named read-outs stand apart in the source and are kept apart here.

What was measured:
Test in all cases: Kinase selectivity, P33-radiolabeled assay
Format in all cases: biochemical
ABL2/ARG = biological target: T1, ABL2/ARG (Homo sapiens, UniProt P42684); details: 10 μM ATP
T1 construct: purchased Reaction Biology Corp
Procedure, shortened: (§1)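 Each enzyme was exposed to 10 μM compound, with duplicate measurements, in reactions containing 10 μM ATP. Numbers are remaining activity as a percent of the vehicle (DMSO) signal.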

EPHA2 = biological target: T2, EPHA2 (Homo sapiens, UniProt P29317); details: 10 μM ATP
T2 construct: purchased Reaction Biology Corp
T2 sequence (P29317 24-976): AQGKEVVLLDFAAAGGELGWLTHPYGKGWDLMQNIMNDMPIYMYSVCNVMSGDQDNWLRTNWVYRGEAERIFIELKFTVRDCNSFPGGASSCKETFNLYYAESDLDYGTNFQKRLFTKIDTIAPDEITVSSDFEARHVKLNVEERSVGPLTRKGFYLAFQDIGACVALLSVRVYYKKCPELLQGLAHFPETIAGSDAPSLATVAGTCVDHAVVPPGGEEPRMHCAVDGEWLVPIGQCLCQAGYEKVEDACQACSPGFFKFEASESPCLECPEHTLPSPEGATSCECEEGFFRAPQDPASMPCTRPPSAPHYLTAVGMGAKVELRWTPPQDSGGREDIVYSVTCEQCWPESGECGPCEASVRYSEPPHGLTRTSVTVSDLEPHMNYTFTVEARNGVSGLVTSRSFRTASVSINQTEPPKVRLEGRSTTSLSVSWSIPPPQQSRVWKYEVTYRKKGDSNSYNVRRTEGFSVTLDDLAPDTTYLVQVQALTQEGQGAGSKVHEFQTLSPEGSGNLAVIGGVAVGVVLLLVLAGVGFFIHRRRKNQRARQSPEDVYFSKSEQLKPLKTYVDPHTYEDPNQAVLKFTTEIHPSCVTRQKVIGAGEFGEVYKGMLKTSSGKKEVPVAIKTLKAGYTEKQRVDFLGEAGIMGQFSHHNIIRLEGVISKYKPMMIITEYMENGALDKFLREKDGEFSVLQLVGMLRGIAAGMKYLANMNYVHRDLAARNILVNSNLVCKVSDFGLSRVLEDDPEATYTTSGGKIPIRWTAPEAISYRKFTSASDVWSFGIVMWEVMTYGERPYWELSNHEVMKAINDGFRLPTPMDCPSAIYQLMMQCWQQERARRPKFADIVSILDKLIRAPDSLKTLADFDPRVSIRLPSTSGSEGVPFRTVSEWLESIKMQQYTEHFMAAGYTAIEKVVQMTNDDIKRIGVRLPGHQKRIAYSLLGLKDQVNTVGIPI
Procedure, shortened: as §1

EPHA6 = biological target: T3, EPHA6 (Homo sapiens, UniProt Q9UF33); details: 10 μM ATP
T3 construct: purchased Reaction Biology Corp
T3 sequence (Q9UF33 23-1036): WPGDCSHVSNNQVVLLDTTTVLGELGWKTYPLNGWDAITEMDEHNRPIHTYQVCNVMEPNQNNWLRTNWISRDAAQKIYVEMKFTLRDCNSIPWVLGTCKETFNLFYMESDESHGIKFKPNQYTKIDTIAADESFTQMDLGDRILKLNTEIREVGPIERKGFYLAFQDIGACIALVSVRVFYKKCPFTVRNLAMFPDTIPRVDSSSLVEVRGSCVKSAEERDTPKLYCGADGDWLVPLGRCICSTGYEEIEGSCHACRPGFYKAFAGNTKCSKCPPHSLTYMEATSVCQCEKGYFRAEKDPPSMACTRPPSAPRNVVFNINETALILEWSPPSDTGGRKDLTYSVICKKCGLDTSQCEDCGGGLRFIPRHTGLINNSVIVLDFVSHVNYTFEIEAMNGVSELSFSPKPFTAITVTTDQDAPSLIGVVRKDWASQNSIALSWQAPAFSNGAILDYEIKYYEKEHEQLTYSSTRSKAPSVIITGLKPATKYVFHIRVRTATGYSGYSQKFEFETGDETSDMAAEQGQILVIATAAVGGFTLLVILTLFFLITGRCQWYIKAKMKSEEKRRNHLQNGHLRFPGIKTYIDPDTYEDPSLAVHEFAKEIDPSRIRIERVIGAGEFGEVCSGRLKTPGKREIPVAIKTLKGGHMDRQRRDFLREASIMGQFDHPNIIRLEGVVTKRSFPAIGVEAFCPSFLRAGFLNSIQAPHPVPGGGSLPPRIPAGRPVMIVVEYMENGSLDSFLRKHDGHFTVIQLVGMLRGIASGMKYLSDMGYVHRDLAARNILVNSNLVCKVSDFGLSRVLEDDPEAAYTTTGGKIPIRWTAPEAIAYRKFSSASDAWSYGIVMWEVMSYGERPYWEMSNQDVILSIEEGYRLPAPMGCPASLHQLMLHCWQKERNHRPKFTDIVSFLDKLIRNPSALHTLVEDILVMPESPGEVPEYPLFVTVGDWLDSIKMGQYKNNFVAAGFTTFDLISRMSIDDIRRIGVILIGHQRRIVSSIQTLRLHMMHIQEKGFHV
Procedure, shortened: as §1

ERK1 = biological target: T4, ERK1 (Homo sapiens, UniProt P27361); details: 10 μM ATP
T4 construct: purchased Reaction Biology Corp
T4 sequence (P27361 whole entry): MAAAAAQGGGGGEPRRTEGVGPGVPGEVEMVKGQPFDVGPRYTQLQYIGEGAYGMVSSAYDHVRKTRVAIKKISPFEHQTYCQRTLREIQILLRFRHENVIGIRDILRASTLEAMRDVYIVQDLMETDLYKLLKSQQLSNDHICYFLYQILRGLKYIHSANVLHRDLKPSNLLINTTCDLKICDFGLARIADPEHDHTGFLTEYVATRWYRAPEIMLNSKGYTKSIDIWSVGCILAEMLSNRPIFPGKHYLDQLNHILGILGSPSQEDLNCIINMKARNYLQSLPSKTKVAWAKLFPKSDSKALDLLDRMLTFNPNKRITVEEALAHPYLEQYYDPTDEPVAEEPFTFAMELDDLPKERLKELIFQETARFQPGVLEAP
Procedure, shortened: as §1

IKKe/IKBKE = biological target: T5, IKKe/IKBKE (Homo sapiens, UniProt Q14164); details: 10 μM ATP
T5 construct: purchased Reaction Biology Corp
T5 sequence (Q14164 1-716): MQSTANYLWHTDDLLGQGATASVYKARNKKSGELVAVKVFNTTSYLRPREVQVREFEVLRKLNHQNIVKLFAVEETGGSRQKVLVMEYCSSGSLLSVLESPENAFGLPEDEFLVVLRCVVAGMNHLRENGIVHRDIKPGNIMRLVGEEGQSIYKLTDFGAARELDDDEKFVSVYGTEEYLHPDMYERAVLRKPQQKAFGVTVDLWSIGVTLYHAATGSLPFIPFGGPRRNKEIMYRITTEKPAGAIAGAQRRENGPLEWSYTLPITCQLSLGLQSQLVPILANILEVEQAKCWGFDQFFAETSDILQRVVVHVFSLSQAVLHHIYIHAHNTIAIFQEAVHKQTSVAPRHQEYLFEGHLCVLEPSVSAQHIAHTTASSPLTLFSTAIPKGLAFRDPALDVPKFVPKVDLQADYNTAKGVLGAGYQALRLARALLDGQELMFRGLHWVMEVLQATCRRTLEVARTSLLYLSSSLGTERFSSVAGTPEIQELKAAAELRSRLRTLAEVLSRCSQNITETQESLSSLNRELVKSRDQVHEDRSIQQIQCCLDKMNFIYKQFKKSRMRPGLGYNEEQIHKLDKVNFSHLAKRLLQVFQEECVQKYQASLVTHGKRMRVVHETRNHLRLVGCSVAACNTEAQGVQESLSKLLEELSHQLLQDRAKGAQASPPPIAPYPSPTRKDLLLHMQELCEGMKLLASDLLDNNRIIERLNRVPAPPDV
Procedure, shortened: as §1

MLK3/MAP3K11 = biological target: T6, MLK3/MAP3K11 (Homo sapiens, UniProt Q16584); details: 10 μM ATP
T6 construct: purchased Reaction Biology Corp
T6 sequence (Q16584 whole entry): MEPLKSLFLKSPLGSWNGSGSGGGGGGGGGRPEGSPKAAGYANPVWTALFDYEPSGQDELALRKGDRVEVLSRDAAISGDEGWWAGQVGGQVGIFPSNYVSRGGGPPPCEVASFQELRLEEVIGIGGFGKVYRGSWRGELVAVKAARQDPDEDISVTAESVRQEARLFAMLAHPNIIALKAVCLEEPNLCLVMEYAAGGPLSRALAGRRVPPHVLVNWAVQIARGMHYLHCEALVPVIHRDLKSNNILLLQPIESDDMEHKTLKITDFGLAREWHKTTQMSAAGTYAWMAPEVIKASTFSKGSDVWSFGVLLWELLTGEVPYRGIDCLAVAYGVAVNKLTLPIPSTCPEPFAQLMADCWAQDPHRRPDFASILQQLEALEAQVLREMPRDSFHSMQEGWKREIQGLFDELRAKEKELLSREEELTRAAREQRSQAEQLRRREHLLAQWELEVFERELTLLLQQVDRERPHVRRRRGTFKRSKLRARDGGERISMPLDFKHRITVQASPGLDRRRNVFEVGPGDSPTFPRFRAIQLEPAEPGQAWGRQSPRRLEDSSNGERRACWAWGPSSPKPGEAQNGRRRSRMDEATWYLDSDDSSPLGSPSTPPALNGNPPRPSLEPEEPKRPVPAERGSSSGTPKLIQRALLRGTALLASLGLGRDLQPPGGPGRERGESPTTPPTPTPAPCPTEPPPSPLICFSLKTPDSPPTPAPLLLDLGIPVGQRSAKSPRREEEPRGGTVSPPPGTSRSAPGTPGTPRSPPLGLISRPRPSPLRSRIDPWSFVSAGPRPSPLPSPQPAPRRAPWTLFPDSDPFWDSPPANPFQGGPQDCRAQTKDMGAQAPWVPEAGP
Procedure, shortened: as §1

ROS/ROS1 = biological target: T7, ROS/ROS1 (Homo sapiens, UniProt P08922)
T7 construct: purchased Reaction Biology Corp
Procedure, shortened: as §1

RSK4 = biological target: T8, RSK4 (Homo sapiens, UniProt Q9UK32); details: 10 μM ATP
T8 construct: purchased Reaction Biology Corp
T8 sequence (Q9UK32 whole entry): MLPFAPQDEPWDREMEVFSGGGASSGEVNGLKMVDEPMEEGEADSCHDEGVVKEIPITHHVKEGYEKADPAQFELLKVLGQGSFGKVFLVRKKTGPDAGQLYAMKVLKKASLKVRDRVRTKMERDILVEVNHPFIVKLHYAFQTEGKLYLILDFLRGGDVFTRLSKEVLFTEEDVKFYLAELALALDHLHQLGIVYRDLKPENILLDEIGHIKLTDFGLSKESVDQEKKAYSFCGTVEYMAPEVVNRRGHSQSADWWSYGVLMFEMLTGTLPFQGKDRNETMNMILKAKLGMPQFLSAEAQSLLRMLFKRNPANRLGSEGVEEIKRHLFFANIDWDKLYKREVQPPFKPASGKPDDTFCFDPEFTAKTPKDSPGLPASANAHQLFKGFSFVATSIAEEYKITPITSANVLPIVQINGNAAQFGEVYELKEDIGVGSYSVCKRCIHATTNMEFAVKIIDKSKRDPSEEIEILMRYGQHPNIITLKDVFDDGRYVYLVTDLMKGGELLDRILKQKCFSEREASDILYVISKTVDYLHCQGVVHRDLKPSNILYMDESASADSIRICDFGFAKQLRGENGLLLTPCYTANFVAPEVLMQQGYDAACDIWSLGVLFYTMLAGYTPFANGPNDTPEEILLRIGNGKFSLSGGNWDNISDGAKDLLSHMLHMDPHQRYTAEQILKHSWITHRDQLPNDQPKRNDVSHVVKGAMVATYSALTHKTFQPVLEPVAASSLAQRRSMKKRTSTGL
Procedure, shortened: as §1

[1] = read-out: % Enzyme Activity (relative to DMSO controls) AVG
[2] = read-out: % Enzyme Activity (relative to DMSO controls) Data 1
[3] = read-out: % Enzyme Activity (relative to DMSO controls) Data 2

T1 sequence (P42684 whole entry): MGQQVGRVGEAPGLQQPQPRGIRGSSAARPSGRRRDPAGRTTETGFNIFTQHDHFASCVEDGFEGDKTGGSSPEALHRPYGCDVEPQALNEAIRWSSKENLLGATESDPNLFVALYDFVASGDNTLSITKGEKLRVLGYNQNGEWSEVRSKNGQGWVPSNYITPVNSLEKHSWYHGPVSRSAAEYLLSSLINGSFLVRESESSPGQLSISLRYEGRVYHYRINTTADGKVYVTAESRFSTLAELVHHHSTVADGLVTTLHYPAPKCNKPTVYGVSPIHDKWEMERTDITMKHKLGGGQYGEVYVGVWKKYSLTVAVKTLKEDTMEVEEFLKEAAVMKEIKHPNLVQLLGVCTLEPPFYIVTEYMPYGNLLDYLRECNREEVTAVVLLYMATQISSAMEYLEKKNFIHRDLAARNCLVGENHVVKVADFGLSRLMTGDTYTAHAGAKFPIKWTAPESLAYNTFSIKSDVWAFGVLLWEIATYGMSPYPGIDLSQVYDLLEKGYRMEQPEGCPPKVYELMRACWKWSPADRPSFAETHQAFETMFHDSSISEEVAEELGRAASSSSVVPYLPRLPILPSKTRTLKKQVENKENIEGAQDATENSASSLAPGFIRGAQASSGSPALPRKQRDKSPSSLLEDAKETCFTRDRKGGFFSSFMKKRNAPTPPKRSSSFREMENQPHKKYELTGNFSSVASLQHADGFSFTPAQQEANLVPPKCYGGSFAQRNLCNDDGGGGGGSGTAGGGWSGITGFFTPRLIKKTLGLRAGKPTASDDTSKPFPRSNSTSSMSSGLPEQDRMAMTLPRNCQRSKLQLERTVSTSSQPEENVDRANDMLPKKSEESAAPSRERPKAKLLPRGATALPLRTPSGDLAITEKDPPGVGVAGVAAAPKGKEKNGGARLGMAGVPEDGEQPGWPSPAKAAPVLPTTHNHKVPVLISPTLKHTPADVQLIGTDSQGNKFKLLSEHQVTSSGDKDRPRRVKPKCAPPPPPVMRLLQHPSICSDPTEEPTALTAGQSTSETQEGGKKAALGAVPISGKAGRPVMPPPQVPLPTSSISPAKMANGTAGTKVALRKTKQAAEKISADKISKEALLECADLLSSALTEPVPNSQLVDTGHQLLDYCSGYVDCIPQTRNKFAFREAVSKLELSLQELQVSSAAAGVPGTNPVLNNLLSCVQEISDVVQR

CC(C)(C)C(=O)N1N=CC[C@H]1c1ccccc1 [GSK′963]
remaining activity at 10 µM (ABL2/ARG; [1]): 83% | remaining activity at 10 µM (ABL2/ARG; [2]): 84.7% | remaining activity at 10 µM (ABL2/ARG; [3]): 81.4% | remaining activity at 10 µM (EPHA2; [1]): 96.3% | remaining activity at 10 µM (EPHA2; [2]): 95.6% | remaining activity at 10 µM (EPHA2; [3]): 97% | remaining activity at 10 µM (EPHA6; [1]): 99.3% | remaining activity at 10 µM (EPHA6; [2]): 101% | remaining activity at 10 µM (EPHA6; [3]): 97.5% | remaining activity at 10 µM (ERK1; [1]): 102% | remaining activity at 10 µM (ERK1; [2]): 98.8% | remaining activity at 10 µM (ERK1; [3]): 104% | remaining activity at 10 µM (IKKe/IKBKE; [1]): 70% | remaining activity at 10 µM (IKKe/IKBKE; [2]): 68.1% | remaining activity at 10 µM (IKKe/IKBKE; [3]): 71.8% | remaining activity at 10 µM (MLK3/MAP3K11; [1]): 95% | remaining activity at 10 µM (MLK3/MAP3K11; [2]): 96% | remaining activity at 10 µM (MLK3/MAP3K11; [3]): 94% | remaining activity at 10 µM (ROS/ROS1; 10 uM, 10 μM ATP, read-out: % Enzyme Activity (relative to DMSO controls) Data 1): 102% | remaining activity at 10 µM (ROS/ROS1; 10 uM, 10 μM ATP, read-out: % Enzyme Activity (relative to DMSO controls) Data 2): 100% | remaining activity at 10 µM (ROS/ROS1; [1]): 101% | remaining activity at 10 µM (RSK4; [1]): 116% | remaining activity at 10 µM (RSK4; [2]): 116% | remaining activity at 10 µM (RSK4; [3]): 116%
